Results as given in paper PMC8406801, “Naringenin Inhibits Platelet Activation and Arterial Thrombosis Through Inhibition of Phosphoinositide 3-Kinase and Cyclic Nucleotide Signaling” (Frontiers in Pharmacology, 2021).
Values joined by “and” are separate entries in the source; they are usually repeats but may differ in a detail not shown here. Equal entries are not always repeated. Where two headings read alike, the source gives them in different places.

How the values were obtained:
[1] = Cytotoxicity: LDH leakage from platelets; format: cell-based; conditions: rat
Experimental: To assess the potential cytotoxicity of naringenin, lactate dehydrogenase (LDH) leakage from platelets were determined. Washed platelets were preincubated with either various concentrations of naringenin or vehicle at 37°C for 5 min and then centrifuged at 350 × g for 3 min at room temperature. The supernatant was detected by LDH assay kit (Beyotime Biotechnology, Shanghai, China). LDH leakage was expressed as percentages of the total LDH leakage in platelets completely lysed with 0.1% Triton X-100.

[2] = tested on: Akt Ser473 phosphorylation; experiment: Immunoblotting of phospho-Akt (Ser473) in ADP-stimulated washed platelets; format: cell-based, rat; conditions: single replicates; for p-Akt Ser473 / t-Akt: raw data
Experimental: For in vitro platelet aggregation, aliquots of washed platelets were preincubated with vehicle or various concentrations of naringenin for 5 min and stimulated with ADP (10 μmol/L) under stirring at 37°C for 5 min. For ex vivo platelet aggregation, PRP was incubated at 37°C for 5 min and stimulated with ADP (5 μmol/L) under stirring at 37 °C. The platelet aggregation was terminated by adding ethylenediaminetetraacetic acid (EDTA; 10 mM). Total protein was prepared using RIPA lysis buffer and protein content was determined by bicinchoninic acid (BCA) protein assay kit. Equal amounts of platelet proteins (30 μg) were separated on 10% SDS polyacrylamide gel electrophoresis (SDS-PAGE) and then transferred to poly vinylidene difluoride (PVDF) membranes and subjected to western blot. Blots were blocked with TBS-Tween 20 containing 5% BSA and probed with primary antibodies diluted in blocking solution at 4°C overnight followed by incubation with the corresponding HRP secondary antibodies. The protein bands were visualized using enhanced chemiluminescence (ECL).
FIGURE 4 Naringenin inhibits PI3K-mediated signaling in ADP-induced platelets. Washed rat platelets were preincubated without or with naringenin at 37°C for 5 min, and then stimulated with ADP (10 μmol/L) under stirring for 5 min. Platelet proteins were then extracted and analyzed by immunoblotting using PI3Kp110β antibody (A) and phospho-specific antibodies such as Akt^Ser473 (B), Akt^Thr308 (C), ERK1/2^Thr202/Tyr204 (D) and GSK3β^Ser9 (E). Total level of GAPDH was measured on each sample as a loading control. The blots shown are representative of three separate experiments. The relative protein expression levels were quantified by ImageJ 1.47v software. The level of relative protein expression obtained with vehicle control (0 μM) was taken as 1. R represents the level of relative protein expression in resting platelets. Data are expressed as means ± SD (n = 3). *p < 0.05, **p < 0.01, ***p < 0.001 compared with the vehicle control group.
FIGURE 5 Effects of naringenin combined with PI3K pan inhibitor LY294002 on platelet aggregation and Akt phosphorylation. Washed rat platelets were preincubated with naringenin (200 μmol/L) alone, the PI3K pan inhibitor LY294002 (5 μmol/L) alone or both for 5 min prior to ADP (10 μmol/L) activation. After stimulation with ADP, platelet aggregation was quantified and expressed as a percentage (A). Data are expressed as means ± SD (n = 6). ***p < 0.001 compared with the ADP-treated group, ^### p < 0.001 compared with naringenin alone or LY294002 alone. Platelet proteins were then extracted and specific antibodies were used to measure the level of total and phosphorylated Akt (B). The blots shown are representative of three separate experiments. The relative protein expression levels were quantified by ImageJ 1.47v software. The level of phosphorylation obtained in the ADP-treated group was taken as 1. Data are expressed as means ± SD (n = 3). ***p < 0.001 compared with the ADP-treated group, ^### p < 0.001 compared with naringenin alone or LY294002 alone.

[3] = tested on: intracellular calcium in washed platelets; experiment: Calcium mobilization in ADP-induced platelets (Fluo 3-AM, flow cytometry); format: cell-based, rat; conditions: for Calcium mobilisation (%): ADP 10 μM, single replicates
Experimental: Calcium mobilization in ADP-induced platelets was measured using flow cytometry. Washed platelets were incubated with Fluo 3-AM (5 μM) at 37°C for 30 min and washed. The Fluo 3-loaded platelets were preincubated with vehicle or different concentrations of naringenin at 37°C for 5 min in the presence of 1 mM CaCl2 and then stimulated with ADP (10 μM) for 5 min. The fluorescence intensity was analyzed using an Accuri C6 flow cytometer.

cGMP = experiment: Measurement of cGMP in washed platelets (ELISA); format: cell-based, rat; conditions: single replicates
Experimental: Washed platelets were preincubated with vehicle or various concentrations of naringenin in the presence of 2 mM CaCl2 at 37°C for 5 min and then stimulated with ADP (10 μM) for 5 min for platelet aggregation. The reaction was terminated by adding EDTA (10 mM). The platelets were boiled for 5 min at 100 °C followed by centrifugation at 13,000 × g for 5 min cAMP and cGMP levels in the supernatant were measured using cAMP or cGMP enzyme immunoassay kits (Cayman Chemicals, Ann Arbor, MI, United States).
FIGURE 6 Naringenin elevates platelet cGMP levels and inhibits phosphodiesterase activity. The levels of cAMP (A) and cGMP (B) in washed platelets preincubated with vehicle or naringenin (100, 200, 400, and 800 μmol/L) were determined after stimulation with ADP (10 μmol/L) using ELISA kits. Similarly, the levels of cAMP (C) and cGMP (D) were determined in resting platelets incubated with naringenin (200, 400, and 800 μmol/L) or vehicle for 5 min. R represents the levels of cAMP or cGMP in resting platelets. Data are expressed as means ± SD (n = 4). *p < 0.05, ***p < 0.001 compared with the vehicle control group. The effects of naringenin on phosphodiesterase activity were measured by HPLC on the hydrolysis of cAMP (E) and cGMP (F). The level of phosphodiesterase activity obtained with vehicle control (0 μM) was taken as 100%. Data are expressed as means ± SD (n = 3). *p < 0.05, ***p < 0.001 compared with the vehicle control group.

[4] = Figure 5B: ADP 10 μM, naringenin 200 μM alone

O=C1C[C@@H](c2ccc(O)cc2)Oc2cc(O)cc(O)c21 [Naringenin]
cytotoxicity at 5 min, 100 µM ([1]; Cytotoxicity (%)): 0.99 ± 0.21%
cytotoxicity at 5 min, 200 µM ([1]; Cytotoxicity (%)): 1.16 ± 0.39%
cytotoxicity at 5 min, 400 μM ([1]; Cytotoxicity (%)): 2.11 ± 0.81%
cytotoxicity at 5 min, 800 μM ([1]; Cytotoxicity (%)): 2.5 ± 0.85%
cytotoxicity at 5 min, 400 μM ([1]; washed platelets, naringenin 400 μM, LDH leakage, Table 1, read-out: Cytotoxicity (%)): 1.94%
cytotoxicity at 5 min, 800 μM ([1]; washed platelets, naringenin 800 μM, LDH leakage, Table 1, read-out: Cytotoxicity (%)): 1.94%
p-Akt Ser473 / t-Akt ([2]; ADP 10 μmol/L, 100 μM): 0.1822 and 0.1825 and 0.1171
p-Akt Ser473 / t-Akt (Fold to ADP only) ([2]; ADP 10 μmol/L, 100 μM): 0.4309 Fold to ADP only and 0.4315 Fold to ADP only and 0.2769 Fold to ADP only
p-Akt Ser473 / t-Akt ([2]; ADP 10 μmol/L, 200 μM): 0.1611 and 0.1671 and 0.0697
p-Akt Ser473 / t-Akt (Fold to ADP only) ([2]; ADP 10 μmol/L, 200 μM): 0.3810 Fold to ADP only and 0.3953 Fold to ADP only and 0.1648 Fold to ADP only
p-Akt Ser473 / t-Akt ([2]; ADP 10 μmol/L, 400 μM): 0.1761 and 0.0969 and 0.0748
p-Akt Ser473 / t-Akt (Fold to ADP only) ([2]; ADP 10 μmol/L, 400 μM): 0.4165 Fold to ADP only and 0.2292 Fold to ADP only and 0.1768 Fold to ADP only
p-Akt Ser473 / t-Akt ([2]; ADP 10 μmol/L, 800 μM): 0.0725 and 0.0226 and 0.0288
p-Akt Ser473 / t-Akt (Fold to ADP only) ([2]; ADP 10 μmol/L, 800 μM): 0.1714 Fold to ADP only and 0.0534 Fold to ADP only and 0.0681 Fold to ADP only
p-Akt Ser473 / t-Akt [2, 4]: 0.5270 and 0.4157 and 0.3312
p-Akt Ser473 / t-Akt (Fold to ADP only) [2, 4]: 0.6055 Fold to ADP only and 0.4777 Fold to ADP only and 0.3805 Fold to ADP only
mobilization of intracellular calcium induced by ADP ([3]; 400 and 800 μM): significantly prevented
Calcium mobilisation (%) ([3]; 200 μM): 46.06% and 50.52% and 43.09%
Calcium mobilisation (%) ([3]; 400 μM): 35.32% and 30.53% and 43.33%
Calcium mobilisation (%) ([3]; 800 μM): 34.54% and 21.04% and 26.06%
cGMP release (cGMP; ADP 10 μmol/L-stimulated platelets, 100 μM): 24.01 pmol/mL and 25.36 pmol/mL and 20.40 pmol/mL and 17.36 pmol/mL
cGMP release (cGMP; ADP 10 μmol/L-stimulated platelets, 200 μM): 33.37 pmol/mL and 25.13 pmol/mL and 28.27 pmol/mL and 30.16 pmol/mL
cGMP release (cGMP; ADP 10 μmol/L-stimulated platelets, 400 μM): 35.44 pmol/mL and 31.24 pmol/mL and 34.51 pmol/mL and 37.74 pmol/mL
cGMP release (cGMP; ADP 10 μmol/L-stimulated platelets, 800 μM): 43.44 pmol/mL and 33.82 pmol/mL and 49.35 pmol/mL and 41.72 pmol/mL
cGMP release (cGMP; resting platelets, 200 μM, 5 min): 32.45 pmol/mL and 25.29 pmol/mL and 28.34 pmol/mL and 23.70 pmol/mL
cGMP release (cGMP; resting platelets, 400 μM, 5 min): 30.89 pmol/mL and 30.12 pmol/mL and 36.90 pmol/mL and 24.38 pmol/mL
cGMP release (cGMP; resting platelets, 800 μM, 5 min): 36.72 pmol/mL and 44.35 pmol/mL and 55.79 pmol/mL and 49.00 pmol/mL
